Measured values reported in ChEMBL document CHEMBL4118125, “MK-8325: A silyl proline-containing NS5A inhibitor with pan-genotype activity for treatment of HCV” (Bioorg Med Chem Lett, 2018).
Values belong to the molecule of their own block, whether it stands above or below them. Calls of active or inactive are those of the source. No cut-off for these calls is given here.

Tests used:
Cytochrome P450 2D6 = Cytochrome P450 2D6 (Homo sapiens, UniProt P10635); test: Inhibition of CYP2D6 (unknown origin); format: ADME
[1] = Oral bioavailability in Sprague-Dawley rat at 5 mg/kg by LC-MS/MS method; format: ADME, organism-based; conditions: in vivo
[2] = Clearance in Sprague-Dawley rat at 2.5 mg/kg, iv by LC-MS/MS method; format: ADME, organism-based; conditions: in vivo
Cytochrome P450 3A4 = Cytochrome P450 3A4 (Homo sapiens, UniProt P08684); test: Inhibition of CYP3A4 (unknown origin); format: ADME
[3] = Drug level in Sprague-Dawley rat at 5 mg/kg, po after 24 hrs by LC-MS/MS method; format: ADME, organism-based; conditions: in vivo, read-out: Drug uptake
[4] = Drug level in cynomolgus monkey at 2 mg/kg, po after 24 hrs by LC-MS/MS method; format: ADME, organism-based, Macaca fascicularis; conditions: in vivo, read-out: Drug uptake
[5] = Effective half life in cynomolgus monkey at 1 mg/kg, iv by LC-MS/MS method; format: ADME, organism-based, Macaca fascicularis; conditions: in vivo, read-out: t1/2eff (converted)
[6] = Effective half life in Sprague-Dawley rat at 2.5 mg/kg, iv by LC-MS/MS method; format: ADME, organism-based; conditions: in vivo, read-out: t1/2eff (converted)
[7] = Effective half life in beagle dog at 1 mg/kg, iv by LC-MS/MS method; format: ADME, organism-based, Canis lupus familiaris; conditions: in vivo, read-out: t1/2eff (converted)
[8] = Oral bioavailability in beagle dog at 2 mg/kg by LC-MS/MS method; format: ADME, organism-based, Canis lupus familiaris; conditions: in vivo
[9] = Drug level in beagle dog at 2 mg/kg, po after 24 hrs by LC-MS/MS method; format: ADME, organism-based, Canis lupus familiaris; conditions: in vivo, read-out: Drug uptake
[10] = Clearance in cynomolgus monkey at 1 mg/kg, iv by LC-MS/MS method; format: ADME, organism-based, Macaca fascicularis; conditions: in vivo
Cynomolgus monkey = test: AUC in cynomolgus monkey at 2 mg/kg, po by LC-MS/MS method; format: ADME, organism-based, Macaca fascicularis; conditions: in vivo
Canis familiaris [11] = test: AUC in beagle dog at 2 mg/kg, po by LC-MS/MS method; format: ADME, organism-based, Canis lupus familiaris; conditions: in vivo
Cytochrome P450 2C9 = Cytochrome P450 2C9 (Homo sapiens, UniProt P11712); test: Inhibition of CYP2C9 (unknown origin); format: ADME
[12] = Clearance in beagle dog at 1 mg/kg, iv by LC-MS/MS method; format: ADME, organism-based, Canis lupus familiaris; conditions: in vivo
[13] = Oral bioavailability in cynomolgus monkey at 2 mg/kg by LC-MS/MS method; format: ADME, organism-based, Macaca fascicularis; conditions: in vivo
[14] = molecular target: T1, PXR (Nuclear receptor subfamily 1 group I member 2) (Homo sapiens, UniProt O75469); test: Activation of PXR (unknown origin) relative to rifampicin; format: ADME; conditions: read-out: FC
T1 sequence (O75469 whole entry): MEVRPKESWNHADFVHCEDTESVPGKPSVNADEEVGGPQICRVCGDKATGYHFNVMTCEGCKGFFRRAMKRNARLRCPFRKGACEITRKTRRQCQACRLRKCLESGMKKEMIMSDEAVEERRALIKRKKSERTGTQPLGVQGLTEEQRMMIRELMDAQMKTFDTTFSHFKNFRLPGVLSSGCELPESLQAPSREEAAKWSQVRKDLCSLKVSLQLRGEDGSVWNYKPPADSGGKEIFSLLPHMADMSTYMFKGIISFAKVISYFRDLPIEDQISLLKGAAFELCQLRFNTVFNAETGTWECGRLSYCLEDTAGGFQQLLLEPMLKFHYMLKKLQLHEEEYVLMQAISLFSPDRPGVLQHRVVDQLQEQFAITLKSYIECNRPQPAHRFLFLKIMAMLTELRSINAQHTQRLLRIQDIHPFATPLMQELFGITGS

[15] = molecular target: T2, Nuclear receptor subfamily 1 group I member 2 (Homo sapiens, UniProt O75469); test: Activation of PXR in human hepatocytes assessed as induction of […] mRNA expression; format: ADME, cell-based
T2 sequence (O75469 whole entry): T1 sequence (O75469 whole entry)

[16] = Cytotoxicity in human HuH7 replicon cells by MTS assay; format: cell-based, Huh-7
Canis familiaris [17] = test: AUC in beagle dog at 1 mg/kg, po by LC-MS/MS method; format: ADME, organism-based, Canis lupus familiaris; conditions: in vivo
[18] = Oral bioavailability in Sprague-Dawley rat at 2 mg/kg by LC-MS/MS method; format: ADME, organism-based; conditions: in vivo
[19] = Oral bioavailability in beagle dog at 1 mg/kg by LC-MS/MS method; format: ADME, organism-based, Canis lupus familiaris; conditions: in vivo
[20] = Drug level in Sprague-Dawley rat at 2 mg/kg, po after 24 hrs by LC-MS/MS method; format: ADME, organism-based; conditions: in vivo, read-out: Drug uptake
[21] = Drug level in beagle dog at 1 mg/kg, po after 24 hrs by LC-MS/MS method; format: ADME, organism-based, Canis lupus familiaris; conditions: in vivo, read-out: Drug uptake
Rattus norvegicus = test: AUC in Sprague-Dawley rat at 2 mg/kg, po by LC-MS/MS method; format: ADME, organism-based; conditions: in vivo
[22] = molecular target: T2, Nuclear receptor subfamily 1 group I member 2; test: Activation of PXR (unknown origin); format: ADME
Homo sapiens = species: Homo sapiens; test: Inhibition of IKs channel (unknown origin) at 30 uM

Chain of Cytochrome P450 2C9 (P11712 whole entry): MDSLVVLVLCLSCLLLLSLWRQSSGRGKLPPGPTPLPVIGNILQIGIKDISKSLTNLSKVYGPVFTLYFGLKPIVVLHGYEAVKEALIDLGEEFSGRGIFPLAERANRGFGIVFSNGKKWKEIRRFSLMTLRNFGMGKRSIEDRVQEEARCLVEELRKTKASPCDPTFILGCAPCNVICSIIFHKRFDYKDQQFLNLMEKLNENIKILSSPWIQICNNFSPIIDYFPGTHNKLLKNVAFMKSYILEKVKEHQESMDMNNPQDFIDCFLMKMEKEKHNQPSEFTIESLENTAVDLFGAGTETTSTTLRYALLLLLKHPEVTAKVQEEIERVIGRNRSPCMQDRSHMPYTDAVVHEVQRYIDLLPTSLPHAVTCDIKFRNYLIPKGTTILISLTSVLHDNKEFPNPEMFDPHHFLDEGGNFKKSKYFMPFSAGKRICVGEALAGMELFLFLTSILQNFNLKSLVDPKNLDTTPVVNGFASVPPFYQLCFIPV
Chain of Cytochrome P450 3A4 (P08684 whole entry): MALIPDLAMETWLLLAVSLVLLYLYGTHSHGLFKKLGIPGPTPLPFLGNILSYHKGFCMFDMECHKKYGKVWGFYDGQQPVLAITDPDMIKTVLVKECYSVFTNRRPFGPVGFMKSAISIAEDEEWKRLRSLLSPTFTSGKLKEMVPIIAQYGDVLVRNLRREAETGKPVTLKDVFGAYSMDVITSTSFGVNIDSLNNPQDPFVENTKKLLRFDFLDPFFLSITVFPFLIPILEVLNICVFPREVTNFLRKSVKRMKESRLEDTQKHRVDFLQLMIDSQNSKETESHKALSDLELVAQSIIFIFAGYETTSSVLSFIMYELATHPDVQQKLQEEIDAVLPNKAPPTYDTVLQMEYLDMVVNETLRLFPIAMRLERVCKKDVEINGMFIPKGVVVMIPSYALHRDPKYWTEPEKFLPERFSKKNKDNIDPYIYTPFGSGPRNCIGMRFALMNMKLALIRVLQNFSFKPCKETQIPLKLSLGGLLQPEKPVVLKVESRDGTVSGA
Chain of Cytochrome P450 2D6 (P10635 whole entry): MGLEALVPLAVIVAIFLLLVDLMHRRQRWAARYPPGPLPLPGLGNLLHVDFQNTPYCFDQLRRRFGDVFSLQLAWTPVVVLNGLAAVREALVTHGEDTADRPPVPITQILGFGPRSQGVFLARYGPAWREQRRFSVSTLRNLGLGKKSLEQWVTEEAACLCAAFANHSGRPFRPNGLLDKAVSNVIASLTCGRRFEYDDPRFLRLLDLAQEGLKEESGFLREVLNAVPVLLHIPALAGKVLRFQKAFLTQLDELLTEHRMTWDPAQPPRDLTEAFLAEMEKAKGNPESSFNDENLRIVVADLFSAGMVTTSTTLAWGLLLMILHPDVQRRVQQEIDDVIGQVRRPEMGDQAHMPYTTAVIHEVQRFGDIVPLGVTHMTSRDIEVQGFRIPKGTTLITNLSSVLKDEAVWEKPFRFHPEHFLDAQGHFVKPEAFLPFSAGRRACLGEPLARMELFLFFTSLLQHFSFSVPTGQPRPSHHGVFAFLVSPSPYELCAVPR

Structure (SMILES): COC(=O)N[C@H](C(=O)N1C[Si](C)(C)C[C@H]1c1ncc(-c2ccc(-c3ccc4c(ccc5nc([C@@H]6CC(F)(F)CN6C(=O)[C@@H](NC(=O)OC)C(C)C)[nH]c54)c3)cc2)[nH]1)C(C)C
INH (Cytochrome P450 2D6): > 20 µM | bioavailability [1]: 64% | clearance [2]: 7 mL/min/kg | INH (Cytochrome P450 3A4): > 20 µM | concentration at 24 h [3]: 94 nM | concentration at 24 h [4]: 273 nM | half-life [5]: 15 h | half-life [6]: 10 h | half-life [7]: 30 h | bioavailability [8]: 47% | concentration at 24 h [9]: 0.4 nM | clearance [10]: 0.7 mL/min/kg | AUC (Cynomolgus monkey): 26 uM.hr/ml | AUC (Canis familiaris [11]): 32 uM.hr/ml | INH (Cytochrome P450 2C9): > 20 µM | clearance [12]: 0.7 mL/min/kg | bioavailability [13]: 45% | fold induction [14]: 0.31 | Activity [15]: 0.3 µM

INH (Cytochrome P450 2D6): > 20 µM | AUC (Canis familiaris [17]): 1.1 uM.hr/ml | bioavailability [18]: 38% | bioavailability [19]: 26% | clearance [2]: 9.3 mL/min/kg | INH (Cytochrome P450 3A4): > 20 µM | half-life [5]: 3 h | concentration at 24 h [20]: 4 nM | concentration at 24 h [21]: 4 nM | AUC (Rattus norvegicus): 1.7 uM.hr/ml | half-life [6]: 2 h | half-life [7]: 4.7 h | clearance [10]: 9.1 mL/min/kg | INH (Cytochrome P450 2C9): > 20 µM | clearance [12]: 6.4 mL/min/kg | Activity [22]: 3 µM | inhibition (Homo sapiens): inactive
Structure (SMILES): COC(=O)N[C@H](C(=O)N1CCC[C@H]1c1ncc(-c2ccc(-c3cc4cc(-c5cnc([C@@H]6CCCN6C(=O)[C@@H](NC(=O)OC)C(C)C)[nH]5)ccc4o3)cc2)[nH]1)C(C)C
CC50 [16]: 7 µM
